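Cells were grown in 96-well plates and exposed to each compound for 48 hours at five concentrations; endpoints were interpolated linearly between bracketing concentrations, or set to the highest concentration if not reached. TGI denotes the concentration required for complete inhibition of growth.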
How the values were obtained:
Test in all cases: NCI tumour cell line growth inhibition, 48 h
[1] = test system: 786-0 renal
[2] = test system: A498 renal
[3] = test system: A549 NSCLC
[4] = test system: ACHN renal
[5] = test system: BT-549 breast
[6] = test system: CAKI-1 renal
[7] = test system: CCRF-CEM leukemia
[8] = test system: COLO 205 colon
[9] = test system: DU-145 prostate
[10] = test system: EKVX NSCLC
[11] = test system: HCC-2998 colon
[12] = test system: HCT-116 colon
[13] = test system: HCT-15 colon
[14] = test system: HL-60(TB) leukemia
[15] = test system: HOP-62 NSCLC
[16] = test system: HOP-92 NSCLC
[17] = test system: HS 578T breast
[18] = test system: HT29 colon
[19] = test system: IGROV1 ovarian
[20] = test system: K-562 leukemia
[21] = test system: KM12 colon
[22] = test system: LOX IMVI melanoma
[23] = test system: M14 melanoma
[24] = test system: MALME-3M melanoma
[25] = test system: MCF7 breast
[26] = test system: MDA-MB-231 breast
[27] = test system: MDA-MB-435
[28] = test system: MDA-N
[29] = test system: MOLT-4 leukemia
[30] = test system: NCI-H23 lung
[31] = test system: NCI-H460 lung
[32] = test system: NCI-H522 lung
[33] = test system: NCI/ADR-RES ovarian
[34] = test system: OVCAR-3 ovarian
[35] = test system: OVCAR-5 ovarian
[36] = test system: OVCAR-8 ovarian
[37] = test system: PC-3 prostate
[38] = test system: RPMI-8226 leukemia
[39] = test system: RXF 393 renal
[40] = test system: SF-268 CNS
[41] = test system: SF-295 CNS
[42] = test system: SF-539 CNS
[43] = test system: SK-MEL-2 melanoma
[44] = test system: SK-MEL-28 melanoma
[45] = test system: SK-MEL-5 melanoma
[46] = test system: SK-OV-3 ovarian
[47] = test system: SN12C renal
[48] = test system: SNB-19 CNS
[49] = test system: SNB-75 CNS
[50] = test system: SR leukemia
[51] = test system: SW-620 colon
[52] = test system: T-47D breast
[53] = test system: TK-10 renal
[54] = test system: U251 CNS
[55] = test system: UACC-257 melanoma
[56] = test system: UACC-62 melanoma
[57] = test system: UO-31 renal
[58] = test system: NCI-H226 lung
[59] = test system: OVCAR-4 ovarian

## CCc1c[n+]([O-])c(C)cc1[N+](=O)[O-]
[1]
  TGI: > 100 µM
[2]
  TGI: > 100 µM
[3]
  TGI: > 100 µM
[4]
  TGI: 47.3 µM
[5]
  TGI: > 100 µM
[6]
  TGI: > 100 µM
[7]
  TGI: > 100 µM
[8]
  TGI: 29.6 µM
[9]
  TGI: > 100 µM
[10]
  TGI: > 100 µM
[11]
  TGI: 40.5 µM
[12]
  TGI: > 100 µM
[13]
  TGI: 40.1 µM
[14]
  TGI: > 100 µM
[15]
  TGI: > 100 µM
[16]
  TGI: > 100 µM
[17]
  TGI: > 100 µM
[18]
  TGI: > 100 µM
[19]
  TGI: > 100 µM
[20]
  TGI: > 100 µM
[21]
  TGI: > 100 µM
[22]
  TGI: > 100 µM
[23]
  TGI: > 100 µM
[24]
  TGI: 97.3 µM
[25]
  TGI: > 100 µM
[26]
  TGI: 80.7 µM
[27]
  TGI: > 100 µM
[28]
  TGI: > 100 µM
[29]
  TGI: > 100 µM
[30]
  TGI: > 100 µM
[31]
  TGI: 63.5 µM
[32]
  TGI: > 100 µM
[33]
  TGI: > 100 µM
[34]
  TGI: > 100 µM
[35]
  TGI: > 100 µM
[36]
  TGI: > 100 µM
[37]
  TGI: > 100 µM
[38]
  TGI: > 100 µM
[39]
  TGI: 60.9 µM
[40]
  TGI: > 100 µM
[41]
  TGI: > 100 µM
[42]
  TGI: > 100 µM
[43]
  TGI: > 100 µM
[44]
  TGI: > 100 µM
[45]
  TGI: > 100 µM
[46]
  TGI: > 100 µM
[47]
  TGI: > 100 µM
[48]
  TGI: > 100 µM
[49]
  TGI: > 100 µM
[50]
  TGI: > 100 µM
[51]
  TGI: > 100 µM
[52]
  TGI: > 100 µM
[53]
  TGI: > 100 µM
[54]
  TGI: > 100 µM
[55]
  TGI: > 100 µM
[56]
  TGI: > 100 µM
[57]
  TGI: > 100 µM

## S=c1[nH]c2ccc(Br)cc2c(=S)s1
[1]
  TGI: > 100 µM
[3]
  TGI: > 100 µM
[4]
  TGI: 56.7 µM
[5]
  TGI: > 100 µM
[6]
  TGI: 57.9 µM
[7]
  TGI: > 100 µM
[8]
  TGI: 32.2 µM
[9]
  TGI: > 100 µM
[10]
  TGI: 91.3 µM
[11]
  TGI: 63.7 µM
[12]
  TGI: 52.1 µM
[13]
  TGI: > 100 µM
[14]
  TGI: 62.4 µM
[15]
  TGI: > 100 µM
[16]
  TGI: 64.8 µM
[17]
  TGI: > 100 µM
[18]
  TGI: > 100 µM
[19]
  TGI: > 100 µM
[20]
  TGI: > 100 µM
[21]
  TGI: > 100 µM
[22]
  TGI: > 100 µM
[23]
  TGI: 95.3 µM
[24]
  TGI: > 100 µM
[25]
  TGI: 40.8 µM
[26]
  TGI: 63.7 µM
[27]
  TGI: 67.2 µM
[28]
  TGI: 54 µM
[29]
  TGI: > 100 µM
[58]
  TGI: > 100 µM
[30]
  TGI: 82.6 µM
[31]
  TGI: 62.4 µM
[32]
  TGI: 77.7 µM
[33]
  TGI: > 100 µM
[34]
  TGI: > 100 µM
[59]
  TGI: 38.6 µM
[35]
  TGI: 60.4 µM
[36]
  TGI: > 100 µM
[37]
  TGI: 49.8 µM
[38]
  TGI: 95.4 µM
[39]
  TGI: > 100 µM
[40]
  TGI: > 100 µM
[41]
  TGI: 85.1 µM
[42]
  TGI: > 100 µM
[43]
  TGI: 61.8 µM
[44]
  TGI: > 100 µM
[45]
  TGI: 37.8 µM
[46]
  TGI: > 100 µM
[47]
  TGI: 46.5 µM
[48]
  TGI: > 100 µM
[49]
  TGI: 93 µM
[50]
  TGI: > 100 µM
[51]
  TGI: > 100 µM
[52]
  TGI: 73.9 µM
[53]
  TGI: 84.5 µM
[54]
  TGI: 54.8 µM
[55]
  TGI: 69.5 µM
[56]
  TGI: 50.7 µM
[57]
  TGI: 53.5 µM

From PubChem BioAssay (NCI)
